Experimental data: patent US9012402B1, “Gel for topical delivery of NSAIDs to provide relief of musculoskeletal pain and methods for its preparation” (priority 2014, dated 2015)

Key:
[1] = cited from earlier work
[2] = topical, average of seven clinical studies; cited from earlier work
[3] = Fraction of drug unionized at a given pH; assay type: physicochemical

| SMILES | Log P (octanol: water) [1] | study participants who experienced relief of acute pain [2] [%] | fraction unionized ([3]; at pH 3.5) [%] | fraction unionized ([3]; at pH 6.0) [%] | fraction in the unionized form ([3]; pH of 5 or less) [%] | fraction in unionized form ([3]; pH of 6.5) [%] |
| --- | --- | --- | --- | --- | --- | --- |
| CC(C(=O)O)c1cccc(C(=O)c2ccccc2)c1 (stereo not shown) [Ketoprofen, 2-(3-benzoylphenyl)-propionic acid] | 2.68 | 73 |  |  |  |  |
| O=C(O)Cc1ccccc1Nc1c(Cl)cccc1Cl [diclofenac] |  | 52 |  |  |  |  |
| CC(C)Cc1ccc(C(C)C(=O)O)cc1 (stereo not shown) [ibuprofen] |  |  | 88.8 | 2.45 | > 20 | 0.79 |
